Patent US8569281B2, “Compounds and their administration for treating a neurodegenerative disease as well as a method for identifying a compound capable of inhibiting a kinase, such as LRRK” (Medical Research Council Technology, priority 2010, dated 2013)

Target: LRRK2 (Homo sapiens (Human), UniProt Q5S007)
Experiment: In Vitro LRRK2 Assay (LabChip 3000, fluorescently-labeled peptide substrate)
Type: biochemical
Settings: ATP 130 μM, substrate 1 μM, 2 hours, ambient temperature; LRRK2 variant not given; read-out: Ki (μM), affinity values for LRRK2
Experimental: This assay was used to determine a compound's potency in inhibiting activity of LRRK2 by determining, Kiapp, IC50, or percent inhibition values. In a polypropylene plate, LRRK2, fluorescently-labeled peptide substrate, ATP and test compound were incubated together. Using a LabChip 3000 (Caliper Life Sciences), after the reaction the substrate was separated by capillary electrophoresis into two populations: phosphorylated and unphosphorylated. The relative amounts of each were quantitated by fluorescence intensity. LRRK2 Ki was determined according to the equation: Y=V0*(1−((x+Ki*(1+S/Km)+Et)/(2*Et)−(((x+Ki*(1+S/Km)+Et)^2−(4*Et*x))^0.5)/(2*Et))).
Ki values in Table 4 and elsewhere herein are shown in μM.
Assay conditions and materials used were as follows:
Compound Plate Preparation:
For serial dilutions, 34.6 μl DMSO was added to columns 3-24.
Total and Blank Preparation:
In Complete Reaction Buffer, substrate was diluted to 4 μM. Equal volumes of Complete Reaction Buffer and 4 μM substrate were combined to obtain the blank. Equal volumes of Complete Reaction Buffer and 4 μM substrate were combined and to the combined solution was added 2× final LRRK2 concentration.
To a 50 μl polypropylene plate, 5 μl/well buffer/substrate was added by hand to Blank wells. A Biomek FX was used to start the kinase reaction (“PLK SAR 23 ATP”). The following were added to the appropriate wells: • 2 μl compound+23 μl ATP; • 5 μl/well compound/ATP in Assay Plate; • 5 μl/well kinase/substrate in Assay Plate;
The plate was incubated for 2 hours in the dark. Biomek FX was used to stop the kinase reaction (“PLK Stop”), and 10 μl/well Stop solution was added to the Assay Plate. Results were read on the LabChip 3000.
The LabChip 3000 was run using the job “LRRK2 IC50” with the following job settings: • Pressure: −1.4 psi • Downstream voltage: −500 V • Upstream voltage: −2350 V • Post sample buffer sip time: 75 seconds • Post dye buffer sip time: 75 seconds • Final delay time: 200 seconds Parkinson's Disease Animal Model

Chain of LRRK2 (Q5S007 whole entry G2019S): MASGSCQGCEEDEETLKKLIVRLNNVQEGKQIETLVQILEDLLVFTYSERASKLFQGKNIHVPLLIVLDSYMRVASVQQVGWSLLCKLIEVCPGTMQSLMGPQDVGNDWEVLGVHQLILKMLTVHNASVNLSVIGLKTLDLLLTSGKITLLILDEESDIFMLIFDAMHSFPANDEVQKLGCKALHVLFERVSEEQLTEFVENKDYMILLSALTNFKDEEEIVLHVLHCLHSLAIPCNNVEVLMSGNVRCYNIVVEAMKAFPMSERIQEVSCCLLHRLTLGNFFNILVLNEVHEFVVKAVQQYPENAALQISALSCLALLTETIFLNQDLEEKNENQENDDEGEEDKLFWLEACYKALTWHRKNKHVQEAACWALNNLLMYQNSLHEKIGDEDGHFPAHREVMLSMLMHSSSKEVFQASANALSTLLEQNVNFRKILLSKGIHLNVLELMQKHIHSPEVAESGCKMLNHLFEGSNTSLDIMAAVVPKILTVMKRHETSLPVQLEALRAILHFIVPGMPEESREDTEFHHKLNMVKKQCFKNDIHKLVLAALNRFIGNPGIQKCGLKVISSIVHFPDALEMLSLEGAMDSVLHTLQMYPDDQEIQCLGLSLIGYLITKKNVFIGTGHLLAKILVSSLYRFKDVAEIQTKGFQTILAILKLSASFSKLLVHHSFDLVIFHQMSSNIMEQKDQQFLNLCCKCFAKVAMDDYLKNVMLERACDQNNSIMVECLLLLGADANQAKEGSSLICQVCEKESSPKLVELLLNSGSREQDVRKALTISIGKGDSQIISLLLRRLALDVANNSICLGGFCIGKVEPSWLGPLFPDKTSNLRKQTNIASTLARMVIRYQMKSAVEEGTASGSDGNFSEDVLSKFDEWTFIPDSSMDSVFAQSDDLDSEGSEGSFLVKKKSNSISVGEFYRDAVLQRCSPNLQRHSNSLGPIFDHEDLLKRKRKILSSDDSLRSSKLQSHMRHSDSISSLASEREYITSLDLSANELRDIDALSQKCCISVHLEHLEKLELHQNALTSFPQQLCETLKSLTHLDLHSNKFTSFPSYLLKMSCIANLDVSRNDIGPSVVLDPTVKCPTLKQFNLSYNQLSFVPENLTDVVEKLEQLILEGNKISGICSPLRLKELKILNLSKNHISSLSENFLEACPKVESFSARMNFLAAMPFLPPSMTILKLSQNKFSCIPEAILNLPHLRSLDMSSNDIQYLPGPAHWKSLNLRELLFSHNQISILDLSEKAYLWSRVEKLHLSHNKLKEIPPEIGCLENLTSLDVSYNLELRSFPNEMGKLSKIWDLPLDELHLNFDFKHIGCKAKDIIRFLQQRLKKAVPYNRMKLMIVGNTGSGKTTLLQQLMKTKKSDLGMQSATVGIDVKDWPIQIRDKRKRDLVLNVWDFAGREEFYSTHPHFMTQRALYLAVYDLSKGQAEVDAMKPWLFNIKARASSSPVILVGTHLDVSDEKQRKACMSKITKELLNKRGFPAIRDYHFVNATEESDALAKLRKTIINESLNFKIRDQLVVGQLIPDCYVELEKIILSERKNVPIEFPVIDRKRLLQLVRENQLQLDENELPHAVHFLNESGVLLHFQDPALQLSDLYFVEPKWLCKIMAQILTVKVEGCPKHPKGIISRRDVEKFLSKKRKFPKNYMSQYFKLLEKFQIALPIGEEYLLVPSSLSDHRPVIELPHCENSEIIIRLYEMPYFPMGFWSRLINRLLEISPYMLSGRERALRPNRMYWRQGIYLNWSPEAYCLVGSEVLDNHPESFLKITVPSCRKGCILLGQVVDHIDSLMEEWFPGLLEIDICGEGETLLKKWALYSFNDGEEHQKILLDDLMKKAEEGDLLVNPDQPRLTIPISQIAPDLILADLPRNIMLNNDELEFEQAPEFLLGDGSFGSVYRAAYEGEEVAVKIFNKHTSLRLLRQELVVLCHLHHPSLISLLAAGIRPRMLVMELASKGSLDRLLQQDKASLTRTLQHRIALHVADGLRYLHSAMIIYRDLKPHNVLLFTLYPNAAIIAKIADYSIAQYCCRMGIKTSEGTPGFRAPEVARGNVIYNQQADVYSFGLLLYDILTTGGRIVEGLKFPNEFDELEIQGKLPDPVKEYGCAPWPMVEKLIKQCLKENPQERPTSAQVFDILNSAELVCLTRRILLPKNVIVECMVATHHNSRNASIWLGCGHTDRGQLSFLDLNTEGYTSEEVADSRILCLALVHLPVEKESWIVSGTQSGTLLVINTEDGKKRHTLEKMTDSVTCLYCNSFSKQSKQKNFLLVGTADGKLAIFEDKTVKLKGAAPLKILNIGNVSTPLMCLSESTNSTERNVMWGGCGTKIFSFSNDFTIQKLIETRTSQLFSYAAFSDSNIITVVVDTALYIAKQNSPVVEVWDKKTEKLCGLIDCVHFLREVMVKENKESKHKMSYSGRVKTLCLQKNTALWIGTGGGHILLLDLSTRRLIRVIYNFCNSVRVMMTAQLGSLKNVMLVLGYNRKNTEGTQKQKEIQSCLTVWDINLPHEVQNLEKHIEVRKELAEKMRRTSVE

Work on N#Cc1cncc(-c2n[nH]c3ccnc(OC4CCOCC4)c23)c1 [Example 156] yielded a Ki of 0.172 µM.

CN1CCc2c(-c3n[nH]c4ccnc(OC5CCOCC5)c34)cccc21 [Example 157, 3-(1-Methylindolin-4-yl)-4-(tetrahydro-2H-pyran-4-yloxy)-1H-pyrazolo[4,3-c]pyridine] showed a Ki of 0.495 µM.

Molecule c1cc(-c2n[nH]c3ccnc(OC4CCOCC4)c23)c2cc[nH]c2c1 [Example 158, 3-(1H-Indol-4-yl)-4-(tetrahydro-2H-pyran-4-yloxy)-1H-pyrazolo[4,3-c]pyridine] has a Ki of 0.448 µM.

For CNC(=O)c1cccc(-c2n[nH]c3ccnc(OC4CCOCC4)c23)c1 [Example 160, N-Methyl-3-(4-(tetrahydro-2H-pyran-4-yloxy)-1H-pyrazolo[4,3-c]pyridin-3-yl)benzamide], the Ki was 0.025 µM.

c1cc(CN2CCOCC2)cc(-c2[nH]nc3ccnc(OC4CCOCC4)c23)c1 [Example 161, 4-(3-(4-(Tetrahydro-2H-pyran-4-yloxy)-1H-pyrazolo[4,3-c]pyridin-3-yl)benzyl)morpholine] showed a Ki of 0.107 µM.

For COc1cc(Nc2[nH]nc3ccnc(OC4CCOCC4)c23)ccn1 [Example 162, N-(2-methoxypyridin-4-yl)-4-(tetrahydro-2H-pyran-4-yloxy)-1H-pyrazolo[4,3-c]pyridin-3-amine], the Ki was 0.04 µM.

In the case of c1cc(Nc2[nH]nc3ccnc(OC4CCOCC4)c23)ccn1 [Example 163, N-(Pyridin-4-yl)-4-(tetrahydro-2H-pyran-4-yloxy)-1H-pyrazolo[4,3-c]pyridin-3-amine], the Ki is reported as 0.165 µM.

Molecule CC(C)n1cc(Nc2[nH]nc3ccnc(OC4CCOCC4)c23)cn1 [Example 164, N-(1-Isopropyl-1H-pyrazol-4-yl)-4-(tetrahydro-2H-pyran-4-yloxy)-1H-pyrazolo[4,3-c]pyridin-3-amine] has a Ki of 0.03 µM.

Molecule CS(=O)(=O)c1cccc(-c2[nH]nc3ccnc(OC4CCOCC4)c23)c1 [Example 165, 3-(3-(Methylsulfonyl)phenyl)-4-(tetrahydro-2H-pyran-4-yloxy)-1H-pyrazolo[4,3-c]pyridine] has a Ki of 0.029 µM.

In the case of COc1nccc2n[nH]c(-c3cccc(S(C)(=O)=O)c3)c12 [Example 167, 4-Methoxy-3-(3-(methylsulfonyl)phenyl)-1H-pyrazolo[4,3-c]pyridine], the Ki is reported as 0.045 µM.

CC(C)c1nc(-c2n[nH]c3ccnc(NC4CCOCC4)c23)n[nH]1 [Example 168, 3-(5-Isopropyl-4H-1,2,4-triazol-3-yl)-N-(tetrahydro-2H-pyran-4-yl)-1H-pyrazolo[4,3-c]pyridin-4-amine] gave a Ki of 0.007 µM.

In the case of CNC(=O)c1cccc(-c2[nH]nc3cc(C)nc(OC4CCOCC4)c23)c1 [Example 171, N-methyl-3-(6-methyl-4-(tetrahydro-2H-pyran-4-yloxy)-1H-pyrazolo[4,3-c]pyridin-3-yl)benzamide], the Ki is reported as 0.154 µM.

With Cc1cc2[nH]nc(-c3ccnc(N4CCOCC4)c3)c2c(OC2CCOCC2)n1 [Example 172, 4-(4-(6-methyl-4-(tetrahydro-2H-pyran-4-yloxy)-1H-pyrazolo[4,3-c]pyridin-3-yl)pyridin-2-yl)morpholine] the Ki was 0.035 µM.

Molecule COc1nccc2n[nH]c(-c3ccc(S(C)(=O)=O)cc3)c12 [Example 173, 4-methoxy-3-(4-(methylsulfonyl)phenyl)-1H-pyrazolo[4,3-c] pyridine] has a Ki of 0.09 µM.

Molecule N#Cc1cc(-c2n[nH]c3ccnc(OC4CCOCC4)c23)ccn1 [Example 174, 4-(4-(tetrahydro-2H-pyran-4-yloxy)-1H-pyrazolo[4,3-c]pyridin-3-yl)picolinonitrile] has a Ki of 0.13 µM.

CC(Oc1nccc2[nH]nc(-c3ccnc(N4CCOCC4)c3)c12)C(F)(F)F (centres unmarked) [Example 177, 4-(4-(4-(1,1,1-trifluoropropan-2-yloxy)-1H-pyrazolo[4,3-c]pyridin-3-yl)pyridin-2-yl)morpholine] gave a Ki of 0.016 µM.

COCCOc1nccc2[nH]nc(-c3ccnc(N4CCOCC4)c3)c12 [Example 178, 4-(4-(4-(2-methoxyethoxy)-1H-pyrazolo[4,3-c]pyridin-3-yl)pyridin-2-yl) morpholine] was tested, and the Ki was 0.023 µM.

O=C1OCCN1CCOc1nccc2[nH]nc(-c3ccnc(N4CCOCC4)c3)c12 [Example 179, 3-(2-(3-(2-morpholinopyridin-4-yl)-1H-pyrazolo[4,3-c]pyridin-4-yloxy)ethyl)oxazolidin-2-one] showed a Ki of 0.354 µM.

CC(C)n1cc(-c2n[nH]c3ccnc(OCCN4CCOC4=O)c23)cn1 [Example 182, 3-(2-(3-(1-isopropyl-1H-pyrazol-4-yl)-1H-pyrazolo[4,3-c]pyridin-4-yloxy)ethyl)oxazolidin-2-one] gave a Ki of 0.323 µM.

COc1nccc2[nH]nc(-c3cnn(C4CCOCC4)c3)c12 [Example 184, 4-methoxy-3-(1-(tetrahydro-2H-pyran-4-yl)-1H-pyrazol-4-yl)-1H-pyrazolo[4,3-c]pyridine] showed a Ki of 0.033 µM.

COC(=O)c1[nH]nc2ccnc(NC3CCOCC3)c12 [Example 185, methyl 4-(tetrahydro-2H-pyran-4-ylamino)-1H-pyrazolo[4,3-c]pyridine-3-carboxylate] gave a Ki of 0.1 µM.

c1cc2[nH]nc(-c3cnn(C4CCOCC4)c3)c2c(OC2CCOCC2)n1 [Example 186, 3-(1-(tetrahydro-2H-pyran-4-yl)-1H-pyrazol-4-yl)-4-(tetrahydro-2H-pyran-4-yloxy)-1H-pyrazolo[4,3-c]pyridine] showed a Ki of 0.013 µM.

In the case of Cc1n[nH]c2ccnc(NC3CCOCC3)c12 [Example 188, 3-methyl-N-(tetrahydro-2H-pyran-4-yl)-1H-pyrazolo[4,3-c]pyridin-4-amine], the Ki is reported as 0.13 µM.

Work on c1cc(-c2n[nH]c3ccnc(OC4CCOC4)c23)cc(N2CCOCC2)n1 (centres unmarked) [Example 190, 4-(4-(4-(tetrahydrofuran-3-yloxy)-1H-pyrazolo[4,3-c]pyridin-3-yl)pyridin-2-yl)morpholine] yielded a Ki of 0.013 µM.

In the case of Cc1n[nH]c2ccnc(OC3CCCC3)c12 [Example 196, 4-(cyclopentyloxy)-3-methyl-1H-pyrazolo[4,3-c]pyridine], the Ki is reported as 0.858 µM.

Work on c1cncc(-c2cc(-c3n[nH]c4ccnc(OC5CCOCC5)c34)ccn2)c1 [Example 197, 3-(2,3′-bipyridin-4-yl)-4-(tetrahydro-2H-pyran-4-yloxy)-1H-pyrazolo[4,3-c]pyridine] yielded a Ki of 0.021 µM.

c1cc(-c2cc(-c3n[nH]c4ccnc(OC5CCOCC5)c34)ccn2)ccn1 [Example 198, 3-(2,4′-bipyridin-4-yl)-4-(tetrahydro-2H-pyran-4-yloxy)-1H-pyrazolo[4,3-c]pyridine] showed a Ki of 0.026 µM.

With c1ncc(-c2cc(-c3n[nH]c4ccnc(OC5CCOCC5)c34)ccn2)cn1 [Example 199, 3-(2-(pyrimidin-5-yl)pyridin-4-yl)-4-(tetrahydro-2H-pyran-4-yloxy)-1H-pyrazolo[4,3-c]pyridine] the Ki was 0.046 µM.

With N#Cc1cccc(-c2cc(-c3n[nH]c4ccnc(OC5CCOCC5)c34)ccn2)c1 [Example 201, 3-(4-(4-(tetrahydro-2H-pyran-4-yloxy)-1H-pyrazolo[4,3-c]pyridin-3-yl)pyridin-2-yl) benzonitrile] the Ki was 0.009 µM.

Work on N#Cc1ccc(-c2cc(-c3n[nH]c4ccnc(OC5CCOCC5)c34)ccn2)cc1 [Example 202, 4-(4-(4-(tetrahydro-2H-pyran-4-yloxy)-1H-pyrazolo[4,3-c]pyridin-3-yl)pyridin-2-yl) benzonitrile] yielded a Ki of 0.025 µM.

CN(C)C(=O)c1cccc(-c2cc(-c3n[nH]c4ccnc(OC5CCOCC5)c34)ccn2)c1 [Example 203, N,N-dimethyl-3-(4-(4-(tetrahydro-2H-pyran-4-yloxy)-1H-pyrazolo[4,3-c]pyridin-3-yl)pyridin-2-yl)benzamide] showed a Ki of 0.018 µM.

c1cc(-c2n[nH]c3ccnc(OC4CCOCC4)c23)cc(-c2cn[nH]c2)n1 [Example 204, 3-(2-(1H-pyrazol-4-yl)pyridin-4-yl)-4-(tetrahydro-2H-pyran-4-yloxy)-1H-pyrazolo[4,3-c]pyridine] was tested, and the Ki was 0.012 µM.

In the case of CC(=O)Nc1ccccc1-c1cc(-c2n[nH]c3ccnc(OC4CCOCC4)c23)ccn1 [Example 206, N-(2-(4-(4-(tetrahydro-2H-pyran-4-yloxy)-1H-pyrazolo[4,3-c]pyridin-3-yl)pyridin-2-yl)phenyl)acetamide], the Ki is reported as 0.066 µM.

CC(=O)Nc1ccc(-c2cc(-c3n[nH]c4ccnc(OC5CCOCC5)c34)ccn2)cn1 [Example 207, N-(4-(4-(tetrahydro-2H-pyran-4-yloxy)-1H-pyrazolo[4,3-c]pyridin-3-yl)-2,3′-bipyridin-6′-yl)acetamide] gave a Ki of 0.021 µM.

With CC(=O)Nc1cccc(-c2cc(-c3n[nH]c4ccnc(OC5CCOCC5)c34)ccn2)c1 [Example 209, N-(3-(4-(4-(tetrahydro-2H-pyran-4-yloxy)-1H-pyrazolo[4,3-c]pyridin-3-yl)pyridin-2-yl)phenyl)acetamide] the Ki was 0.01 µM.
